The values below are quoted from earlier work in patent US20050197327A1, “Compounds, compositions, and methods” (priority 2003, published 2005).

The subject of this data set is A549 cells. Particulars: data provided by National Cancer Institute.

For the molecule `CC(=O)O[C@H]1C(=O)[C@@]2(C)[C@H]([C@H](OC(=O)c3ccccc3)[C@]3(O)C[C@H](OC(=O)[C@H](O)[C@@H](NC(=O)c4ccccc4)c4ccccc4)C(C)=C1C3(C)C)[C@]1(OC(C)=O)CO[C@@H]1C[C@@H]2O` [paclitaxel], the GI50 (commonly the concentration at which growth is held to half of that of the control) is 0.004 µM.
With `NC(=O)NO` [hydroxyurea], the GI50 was 500 µM.
With `COc1cccc2c1C(=O)c1c(O)c3c(c(O)c1C2=O)C[C@@](O)(C(=O)CO)C[C@@H]3O[C@H]1C[C@H](N)[C@H](O)[C@H](C)O1` [doxorubicin], the GI50 is 0.063 µM.
Regarding `O=c1[nH]cc(F)c(=O)[nH]1` [5-fluorouracil], the GI50 is 1 µM.
